Measured values as given in publication PMC9114115, “Property space mapping of Pseudomonas aeruginosa permeability to small molecules” (Scientific Reports, 2022).
Converted amounts (≈) assume the structure as drawn. “And” between values parts separate entries of the source, which are not always exact repeats. Equal entries are not always repeated.

Key:
P. aeruginosa PAO1-Pore = test: MIC by two-fold dilution, hyperporinated PAO1-Pore; assay type: cell-based, Pseudomonas aeruginosa; settings: for MICs: PAO1-Pore, LB broth, Table S2; for MIC: Pseudomonas aeruginosa, PAO1, read-out: MICs
Procedure: (§1) In all experiments, P. aeruginosa PAO1-Pore (PAO1 attTn7::PLAC-fhuA) and PΔ3-Pore (ΔmexAB ΔmexCD ΔmexXY attTn7::PLAC-fhuA) strains were used[29]. Strains were routinely grown in Luria–Bertani (LB) or MOPS-M9 medium at 37 °C with aeration. MICs shown in Tables 1 and 2 were determined by a two-fold dilution method in LB broth and MOPS-M9 medium, respectively, following the previously described protocol.

P. aeruginosa PAO1 = test: MIC by two-fold dilution, wild type PAO1; assay type: cell-based, Pseudomonas aeruginosa; settings: for MIC: Pseudomonas aeruginosa, PAO1, MOPS-M9 medium, read-out: MICs
Procedure: as §1

P. aeruginosa = settings: sheet "Good" permeators; all listed compounds are good permeators
Procedure: The measured levels of compound accumulation were analyzed using machine learning to determine which features of the compounds are most important for enabling their cellular accumulation and to determine their optimal values. […] To accentuate the permeability aspect, the accumulation slopes in efflux-deficient and hyperporinated strains were normalized to those in the parental PAO1 strain.
To help visualize the data, we performed a principal component (PC) decomposition of the data.

P. aeruginosa PΔ3-Pore = test: MIC by two-fold dilution, barrierless PΔ3-Pore; assay type: cell-based, Pseudomonas aeruginosa; settings: for MIC: Pseudomonas aeruginosa, read-out: MICs, P∆3-Pore, MOPS-M9 medium; for MICs: P∆3-Pore, LB broth, Table S2
Procedure: as §1

P. aeruginosa PAO1 cells = test: LC–MS quantification of intracellular accumulation, PAO1; settings: 10-80 µM; for Concentration slopes of accumulation, PAO1_1 min: 1 min incubation; for Concentration slopes of accumulation, PAO1_40 min: 40 min incubation;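 for all read-outs here: slope of accumulation versus external concentration fitted as a line through zero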
Procedure, shortened: (§2)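 Cells grown in MOPS-M9 (pH 7.2) with 1% glycerol, Pore strains induced with 0.1 mM IPTG, concentrated 10X in spent medium and exposed to 10, 20, 40, 80 µM compound for 1 and 40 min at RT. Filter-collected cells extracted with methanol; compound quantified by positive-ion LC–MS against calibration in PAO1 cell extract, no-cell filter controls.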

[1] = system: P. aeruginosa PΔ3-Pore cells; test: LC–MS quantification of intracellular accumulation, PΔ3-Pore; settings: 10-80 µM; for Concentration slopes of accumulation, PΔ3-Pore_1 min: 1 min incubation; for Concentration slopes of accumulation, PΔ3-Pore_40min: 40 min incubation;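 for all read-outs here: slope of accumulation versus external concentration fitted as a line through zero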
Procedure, shortened: as §2

P. aeruginosa PΔ3 = test: microbe, parasite or virus in culture; assay type: cell-based, Pseudomonas aeruginosa; settings: Pseudomonas aeruginosa, read-out: MICs
Procedure: as §1

[2] = system: P. aeruginosa PAO1-Pore cells; test: LC–MS quantification of intracellular accumulation, PAO1-Pore; settings: 10-80 µM; for Concentration slopes of accumulation, PAO1-Pore_1 min: 1 min incubation; for Concentration slopes of accumulation, PAO1-Pore_40 min: 40 min incubation;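 for all read-outs here: slope of accumulation versus external concentration fitted as a line through zero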
Procedure, shortened: as §2

P. aeruginosa PΔ3 cells = settings: 10-80 µM; for Concentration slopes of accumulation, PΔ3_1 min: 1 min incubation; for Concentration slopes of accumulation, PΔ3_40 min: 40 min incubation;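 for all read-outs here: slope of accumulation versus external concentration fitted as a line through zero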
Procedure, shortened: as §2

SMILES	MICs (P. aeruginosa PAO1-Pore)	MIC (P. aeruginosa PAO1-Pore)	MICs (P. aeruginosa PAO1; PAO1, LB broth, Table S2)	MIC (P. aeruginosa PAO1)	Cluster of the identified "good" permeators (P. aeruginosa)	MIC (P. aeruginosa PΔ3-Pore)	MICs (P. aeruginosa PΔ3-Pore)	Concentration slopes of accumulation, PAO1_1 min (P. aeruginosa PAO1 cells)	Concentration slopes of accumulation, PAO1_40 min (P. aeruginosa PAO1 cells)	Concentration slopes of accumulation, PΔ3-Pore_1 min [1]	Concentration slopes of accumulation, PΔ3-Pore_40min [1]	MIC (P. aeruginosa PΔ3)	Concentration slopes of accumulation, PAO1-Pore_1 min [2]	Concentration slopes of accumulation, PAO1-Pore_40 min [2]	Concentration slopes of accumulation, PΔ3_1 min (P. aeruginosa PΔ3 cells)	Concentration slopes of accumulation, PΔ3_40 min (P. aeruginosa PΔ3 cells)
CCn1cc(C(=O)O)c(=O)c2cc(F)c(N3CCNC(C)C3)c(F)c21 (centres unmarked) [OU-0000616, LOMEFLOXACIN]	1.56	0.125 µM (≈ 0.0439 µg/mL)	1.56	2.5 µM (≈ 0.878 µg/mL)	4	0.125 µM (≈ 0.0439 µg/mL)	0.024	3.37	2.56	3.95	8.65	0.625 µM (≈ 0.22 µg/mL)	2.85	10.46	2.91	6.86
C[C@@H]1CN(c2c(F)c(N)c3c(=O)c(C(=O)O)cn(C4CC4)c3c2F)C[C@H](C)N1 [OU-0000617, SPARFLOXACIN]	0.25	0.031 µM and 0.01 µg/mL	–	2 µM and 0.8 µg/mL	4	0.016 µM and 0.01 µg/mL	0.0039	4.89	5.25	4.64	10.98	0.5 µM and 0.2 µg/mL	8.17	10.82	5.48	4.11
COc1c(N2CCNC(C)C2)c(F)cc2c(=O)c(C(=O)O)cn(C3CC3)c12 (centres unmarked) [OU-0000623, GATIFLOXACIN]	0.25	0.0625 µM and 0.02 µg/mL	–	2 µM and 0.8 µg/mL	1	0.031 µM and 0.01 µg/mL	0.0039	1.47	6.10	1.90	5.45	0.5 µM and 0.2 µg/mL	2.29	4.14	1.11	4.13
Cc1oc(=O)oc1CN1CCN(c2cc3c(cc2F)c(=O)c(C(=O)O)c2n3C(C)S2)CC1 (centres unmarked) [OU-0000631, PRULIFLOXACIN]	0.0625	0.016 µM and 0.01 µg/mL	–	0.5 µM and 0.23 µg/mL	3	0.004 µM and 0.002 µg/mL	0.0039	10.64	11.45	5.06	5.20	0.125 µM and 0.06 µg/mL	7.49	9.31	7.35	8.36
Cc1cc(C)nc(NS(=O)(=O)c2ccc(N)cc2)n1 [OU-0000689, SULFAMETHAZINE]	–	50 µM and 15 µg/mL	–	> 200 µM and > 60.1 µg/mL	1	12.5 µM and 3.75 µg/mL	–	1.42	1.40	1.54	1.19	100 µM and 30 µg/mL	1.53	1.05	1.31	1.35
CCn1cc(C(=O)O)c(=O)c2cc(F)c(N3CCNCC3)cc21 [OU-0000789, Norfloxacin]	1	0.2 µM and 0.06 µg/mL	–	1.25 µM and 0.4 µg/mL	3	0.1 µM and 0.03 µg/mL	0.0156	37.81	32.76	25.07	33.05	0.625 µM and 0.2 µg/mL	31.44	54.56	15.28	26.08
CC(=O)NC[C@H]1CN(c2ccc(N3CCOCC3)c(F)c2)C(=O)O1 [OU-0031508, linezolid]	25	200 µM (≈ 67.5 µg/mL)	–	> 200 µM and > 67.5 µg/mL	3	25 µM (≈ 8.43 µg/mL)	12.5	34.71	41.30	30.83	28.73	200 µM (≈ 67.5 µg/mL)	12.71	26.51	39.20	25.30
